Data published in PubChem BioAssay (NCI).
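Five compound concentrations were applied to cells in 96-well plates for 48 hours; endpoints were derived by simple linear interpolation of the resulting dose-response curve. GI50 marks 50% less growth. The concentration for full growth arrest is given as TGI.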

Experiments:
Assay in all cases: NCI anticancer screen, dose series, 48 h
[1] = tested on: SN12C renal
[2] = tested on: OVCAR-8 ovarian
[3] = tested on: SK-MEL-5 melanoma
[4] = tested on: HCC-2998 colon
[5] = tested on: SR leukemia
[6] = tested on: CCRF-CEM leukemia
[7] = tested on: SK-OV-3 ovarian
[8] = tested on: KM12 colon
[9] = tested on: HCT-15 colon
[10] = tested on: ACHN renal
[11] = tested on: HOP-92 NSCLC
[12] = tested on: NCI-H226 lung
[13] = tested on: MALME-3M melanoma
[14] = tested on: COLO 205 colon
[15] = tested on: SW-620 colon
[16] = tested on: HT29 colon
[17] = tested on: CAKI-1 renal
[18] = tested on: SF-539 CNS
[19] = tested on: IGROV1 ovarian
[20] = tested on: SK-MEL-2 melanoma
[21] = tested on: SF-295 CNS
[22] = tested on: MCF7 breast
[23] = tested on: SF-268 CNS
[24] = tested on: UACC-62 melanoma
[25] = tested on: TK-10 renal
[26] = tested on: EKVX NSCLC
[27] = tested on: T-47D breast
[28] = tested on: SNB-19 CNS
[29] = tested on: 786-0 renal
[30] = tested on: OVCAR-3 ovarian
[31] = tested on: OVCAR-4 ovarian
[32] = tested on: NCI/ADR-RES ovarian
[33] = tested on: A498 renal
[34] = tested on: NCI-H23 lung
[35] = tested on: MDA-MB-435
[36] = tested on: SNB-75 CNS
[37] = tested on: BT-549 breast
[38] = tested on: MDA-MB-231 breast
[39] = tested on: NCI-H460 lung
[40] = tested on: HS 578T breast
[41] = tested on: HCT-116 colon
[42] = tested on: K-562 leukemia
[43] = tested on: NCI-H522 lung
[44] = tested on: OVCAR-5 ovarian
[45] = tested on: HOP-62 NSCLC
[46] = tested on: M14 melanoma
[47] = tested on: A549 NSCLC
[48] = tested on: UO-31 renal
[49] = tested on: RXF 393 renal
[50] = tested on: LOX IMVI melanoma
[51] = tested on: U251 CNS
[52] = tested on: DU-145 prostate
[53] = tested on: MOLT-4 leukemia
[54] = tested on: PC-3 prostate

CCOC(=O)c1c(NC(=O)c2ccc(Cl)cc2)sc2c(CN(C)C)c(O)ccc12 showed a GI50 [1] of 14.6 µM, a TGI [1] greater than 100 µM and a GI50 [2] of 3.55 µM. For the same compound, the TGI [2] was 19.2 µM, the GI50 [3] was 10.8 µM and the TGI [3] was 35.1 µM. The GI50 [4] was 1.83 µM, the TGI [4] was 3.84 µM and the GI50 [5] was 2.19 µM. It also gave a TGI [5] of 4.82 µM, a GI50 [6] of 13.3 µM and a TGI [6] greater than 100 µM. It also gave a GI50 [7] of 10.9 µM, a TGI [7] of 33.3 µM and a GI50 [8] of 4.82 µM. The TGI [8] was greater than 100 µM, the GI50 [9] was 2.16 µM and the TGI [9] was 5.76 µM. It also gave a GI50 [10] of 4.28 µM, a TGI [10] of 18.3 µM and a GI50 [11] of 1.78 µM. For the same compound, the TGI [11] was 6.07 µM, the GI50 [12] was 18.3 µM and the TGI [12] was greater than 100 µM. It also gave a GI50 [13] of 1.85 µM, a TGI [13] of 3.86 µM and a GI50 [14] of 1.87 µM. For the same compound, the TGI [14] was 4.1 µM, the GI50 [15] was 2.4 µM and the TGI [15] was 7.33 µM. For the same compound, the GI50 [16] was 2.48 µM, the TGI [16] was 7.13 µM and the GI50 [17] was 5.57 µM. For the same compound, the TGI [17] was 32.5 µM, the GI50 [18] was 5.2 µM and the TGI [18] was 18.4 µM. It also gave a GI50 [19] of 8.88 µM, a TGI [19] of 31.7 µM and a GI50 [20] of 6.51 µM. For the same compound, the TGI [20] was 41.1 µM, the GI50 [21] was 3.79 µM and the TGI [21] was 16.4 µM. The GI50 [22] was 7.57 µM, the TGI [22] was greater than 100 µM and the GI50 [23] was 7.63 µM. It also gave a TGI [23] of 48.8 µM, a GI50 [24] of 3.41 µM and a TGI [24] of 14.8 µM. For the same compound, the GI50 [25] was 14.5 µM, the TGI [25] was 34.5 µM and the GI50 [26] was 10.1 µM. For the same compound, the TGI [26] was 31.8 µM, the GI50 [27] was 4.88 µM and the TGI [27] was greater than 100 µM. It also gave a GI50 [28] of 5.47 µM, a TGI [28] of 24.8 µM and a GI50 [29] of 5.54 µM. It also gave a TGI [29] of 20.7 µM, a GI50 [30] of 16.2 µM and a TGI [30] greater than 100 µM. It also gave a GI50 [31] of 9.85 µM, a TGI [31] of 71.4 µM and a GI50 [32] of 8.57 µM. The TGI [32] was 36.1 µM, the GI50 [33] was 6.09 µM and the TGI [33] was 19.9 µM. For the same compound, the GI50 [34] was 14.6 µM, the TGI [34] was 47.6 µM and the GI50 [35] was 6.62 µM. It also gave a TGI [35] of 29.9 µM, a GI50 [36] of 3.25 µM and a TGI [36] of 19 µM. The GI50 [37] was 13.4 µM, the TGI [37] was greater than 100 µM and the GI50 [38] was 6.53 µM. It also gave a TGI [38] of 34.5 µM, a GI50 [39] of 4.71 µM and a TGI [39] greater than 100 µM. For the same compound, the GI50 [40] was 4.06 µM, the TGI [40] was 26.5 µM and the GI50 [41] was 6.96 µM. It also gave a TGI [41] of 40.8 µM, a GI50 [42] of 1.62 µM and a TGI [42] of 5.07 µM. For the same compound, the GI50 [43] was 21 µM, the TGI [43] was greater than 100 µM and the GI50 [44] was 9.1 µM. For the same compound, the TGI [44] was 57.2 µM, the GI50 [45] was 5.58 µM and the TGI [45] was 27.1 µM. For the same compound, the GI50 [46] was 2.24 µM, the TGI [46] was 5.87 µM and the GI50 [47] was 8.07 µM. For the same compound, the TGI [47] was 36.2 µM, the GI50 [48] was 4.88 µM and the TGI [48] was 25.7 µM. It also gave a GI50 [49] of 2.98 µM, a TGI [49] of 13.4 µM and a GI50 [50] of 4.73 µM. The TGI [50] was 18.5 µM, the GI50 [51] was 4.85 µM and the TGI [51] was 23.5 µM. For the same compound, the GI50 [52] was 13.2 µM, the TGI [52] was 47.9 µM and the GI50 [53] was 4.11 µM. The TGI [53] was greater than 100 µM, the GI50 [54] was 8.44 µM and the TGI [54] was 37.3 µM.
